Measured values taken from ChEMBL document CHEMBL3046961, “Fungicidal activity of 12-propoxyimino-1, 15-pentadecanlactam on selected crops” (Crop Prot, 2009).

Legend:
Botrytis cinerea [1] = test: Antifungal activity against Botryotinia fuckeliana in seven to eight-leaf stage of tomato plant at 315 g/ha treated 24 hr before inoculation measured after 5 days relative to control; assay type: functional
Rhizoctonia solani [2] = test: Antifungal activity against Rhizoctonia solani in five-leaf stage of cucumber growing soil at 315 g/ha treated 48 hr before inoculation measured after 6 days relative to control by pot culture test; assay type: functional
Rhizoctonia solani [3] = test: Antifungal activity against Rhizoctonia solani in five-leaf stage of cucumber growing soil at 504 g/ha treated 48 hr before inoculation measured after 6 days relative to control by pot culture test; assay type: functional
[4] = Biodistribution in Gossypium hirsutum (cotton) plant leaf at 500 mg/L after 16 hr; assay type: ADME, organism-based; conditions: read-out: Drug uptake
Botrytis cinerea [5] = test: Antifungal activity against Botryotinia fuckeliana in seven to eight-leaf stage of tomato plant at 504 g/ha treated 24 hr before inoculation measured after 5 days relative to control; assay type: functional
[6] = Biodistribution in Gossypium hirsutum (cotton) plant root at 500 mg/L after 24 hr; assay type: ADME, organism-based; conditions: read-out: Drug uptake
[7] = Biodistribution in Gossypium hirsutum (cotton) plant root at 500 mg/L after 8 hr; assay type: ADME, organism-based; conditions: read-out: Drug uptake
Botrytis cinerea [8] = test: Antifungal activity against Botryotinia fuckeliana in cucumber plant at 450 g/ha treated 2 times in 6 days interval measured after 7 days last treatment relative to control; assay type: functional
Oryctolagus cuniculus [9] = species on record: Oryctolagus cuniculus; test: Toxicity in Oryctolagus cuniculus (rabbit) assessed as eye irritation; assay type: organism-based; conditions: in vivo
[10] = Biodistribution in Gossypium hirsutum (cotton) plant root at 500 mg/L after 36 hr; assay type: ADME, organism-based; conditions: read-out: Drug uptake
Botrytis cinerea [11] = test: Antifungal activity against Botryotinia fuckeliana in seven to eight-leaf stage of tomato plant at 168 g/ha treated 24 hr before inoculation measured after 5 days relative to control; assay type: functional
[12] = Biodistribution in Gossypium hirsutum (cotton) plant root at 500 mg/L after 4 hr; assay type: ADME, organism-based; conditions: read-out: Drug uptake
Oryctolagus cuniculus [13] = species on record: Oryctolagus cuniculus; test: Toxicity in Oryctolagus cuniculus (rabbit) assessed as skin irritation; assay type: organism-based; conditions: in vivo
[14] = Biodistribution in Gossypium hirsutum (cotton) plant stem at 500 mg/L after 16 hr; assay type: ADME, organism-based; conditions: read-out: Drug uptake
[15] = Acute dermal toxicity in Rattus norvegicus (rat); assay type: organism-based, Skin of body; conditions: in vivo, topical or ocular
[16] = Biodistribution in Gossypium hirsutum (cotton) plant stem at 500 mg/L after 8 hr; assay type: ADME, organism-based; conditions: read-out: Drug uptake
[17] = Biodistribution in Gossypium hirsutum (cotton) plant stem at 500 mg/L after 4 hr; assay type: ADME, organism-based; conditions: read-out: Drug uptake
[18] = Biodistribution in Gossypium hirsutum (cotton) plant leaf at 500 mg/L after 36 hr; assay type: ADME, organism-based; conditions: read-out: Drug uptake
[19] = Biodistribution in Gossypium hirsutum (cotton) plant root at 500 mg/L after 48 hr; assay type: ADME, organism-based; conditions: read-out: Drug uptake
Botrytis cinerea [20] = test: Antifungal activity against Botryotinia fuckeliana in cucumber plant at 281 g/ha treated 2 times in 6 days interval measured after 7 days last treatment relative to control; assay type: functional
[21] = Biodistribution in Gossypium hirsutum (cotton) plant leaf at 500 mg/L after 4 hr; assay type: ADME, organism-based; conditions: read-out: Drug uptake
[22] = Biodistribution in Gossypium hirsutum (cotton) plant stem at 500 mg/L after 48 hr; assay type: ADME, organism-based; conditions: read-out: Drug uptake
[23] = Acute oral toxicity in Rattus norvegicus (rat); assay type: organism-based; conditions: in vivo
[24] = Biodistribution in Gossypium hirsutum (cotton) plant root at 500 mg/L after 16 hr; assay type: ADME, organism-based; conditions: read-out: Drug uptake
[25] = Biodistribution in Gossypium hirsutum (cotton) plant stem at 500 mg/L after 36 hr; assay type: ADME, organism-based; conditions: read-out: Drug uptake
[26] = Biodistribution in Gossypium hirsutum (cotton) plant stem at 500 mg/L after 24 hr; assay type: ADME, organism-based; conditions: read-out: Drug uptake
[27] = Biodistribution in Gossypium hirsutum (cotton) plant leaf at 500 mg/L after 24 hr; assay type: ADME, organism-based; conditions: read-out: Drug uptake
[28] = Biodistribution in Gossypium hirsutum (cotton) plant leaf at 500 mg/L after 48 hr; assay type: ADME, organism-based; conditions: read-out: Drug uptake
Rhizoctonia solani [29] = test: Antifungal activity against Rhizoctonia solani in five-leaf stage of cucumber growing soil at 168 g/ha treated 48 hr before inoculation measured after 6 days relative to control by pot culture test; assay type: functional
[30] = Biodistribution in Gossypium hirsutum (cotton) plant leaf at 500 mg/L after 8 hr; assay type: ADME, organism-based; conditions: read-out: Drug uptake
Botrytis cinerea [31] = test: Antifungal activity against Botryotinia fuckeliana in seven to eight-leaf stage of tomato plant at 563 g/ha treated 24 hr before inoculation measured after 5 days relative to control; assay type: functional
Rhizoctonia solani [32] = test: Antifungal activity against Rhizoctonia solani in five-leaf stage of cucumber growing soil at 450 g/ha treated 48 hr before inoculation measured after 6 days relative to control by pot culture test; assay type: functional

CCCON=C1CCCCCCCCCCC(=O)NCCC1
Activity (Botrytis cinerea [1]): 85.82%
Activity (Rhizoctonia solani [2]): 53.46%
Activity (Rhizoctonia solani [3]): 73.59%
concentration at 16 h [4]: 330 ng/g
Activity (Botrytis cinerea [5]): 87.51%
concentration at 24 h [6]: 98000 ng/g
concentration at 8 h [7]: 66700 ng/g
Activity (Botrytis cinerea [8]): 95.14%
LD50 (Oryctolagus cuniculus [9]): Toxic
concentration at 36 h [10]: 116000 ng/g
Activity (Botrytis cinerea [11]): 80.67%
concentration at 4 h [12]: 54400 ng/g
LD50 (Oryctolagus cuniculus [13]): Non-toxic
concentration at 16 h [14]: 2710 ng/g
LD50 [15]: > 2000 mg/kg
concentration at 8 h [16]: 870 ng/g
concentration at 4 h [17]: 190 ng/g
concentration at 36 h [18]: 2930 ng/g
concentration at 48 h [19]: 137000 ng/g
Activity (Botrytis cinerea [20]): 89.51%
concentration at 4 h [21]: 40 ng/g
concentration at 48 h [22]: 5120 ng/g
LD50 [23]: > 5000 mg/kg
concentration at 16 h [24]: 97000 ng/g
concentration at 36 h [25]: 8950 ng/g
concentration at 24 h [26]: 4270 ng/g
concentration at 24 h [27]: 890 ng/g
concentration at 48 h [28]: 2530 ng/g
Activity (Rhizoctonia solani [29]): 38.99%
concentration at 8 h [30]: 110 ng/g

CC(C)NC(=O)N1CC(=O)N(c2cc(Cl)cc(Cl)c2)C1=O [IPRODIONE]
Activity (Botrytis cinerea [31]): 90.39%

CN(C)C(=S)SSC(=S)N(C)C [THIRAM]
Activity (Rhizoctonia solani [32]): 42.14%
